According to patent US20100004267A1, “LIQUID PREPARATION” (ASUBIO PHARMA CO., LTD., priority 2006, published 2010):

Assay: Reduction in surface activity in SUN N8075 aqueous solution (Test example 7)
Format: physicochemical
Design: key to Appearance after shaking / Appearance after standing: A: Clear; B+: Almost clear; B: Much less insoluble matters than Control; Clearly less insoluble matter than Control; D: Comparable amount of insoluble matters with Control; E: More insoluble matters than Control; key to General judgment: A: Great effect; B+: Large effect; B: Effective; C: Effective but very small; D: Comparable to Control (No effect); E: Inferior to Control (clouded); key to Foaming property: A: Much less foaming than Control; B: Clearly less foaming than Control; Slightly less foaming than Control; D: Comparable to Control; E: More foaming than Control
Experimental: Into each test compound solution which was prepared in advance to achieve each adding concentration shown in the Table, SUN N8075 was added and dissolved so that the concentration thereof was 5 mg/mL, and the pH value was adjusted to 3 to 4 as appropriate by hydrochloric acid to prepare a sample solution.
Each 10 mL of sample solution was put into a 10-mL stoppered test tube, and shaken 30 strokes vertically by hand and allowed to stand upright, and under room diffused light, appearance of sample solution after shaking, foaming property (foaming quantity), defoaming time, post standing observation (after standing for 3 days or more) were evaluated.
As a control, an aqueous solution containing no test substance but containing 5 mg/mL of SUN N8075 was examined in a similar manner.

[1] = Control: 5 mg/mL SUN N8075 aqueous solution, no test substance

Structure (SMILES): Cc1cc(OC[C@@H](O)CN2CCN(c3ccc(Cc4ccc(F)cc4)cc3)CC2)c(C)c(C)c1N [SUN N8075, (2S)-1-(4-amino-2,3,5-trimethylphenoxy)-3-{4-[4-(4-fluorobenzyl)phenyl]-1-piperazinyl}-2-propanol dimethane sulfonate]
- Appearance after shaking (Captisol 10.00%): A
- Appearance after standing (Captisol 10.00%): A
- Defoaming time (Captisol 10.00%): A (In 20 minutes)
- Foaming property (Captisol 10.00%): A
- General judgment (Captisol 10.00%): A
- Appearance after shaking (Chlorobutanol 0.10%): D
- Appearance after standing (Chlorobutanol 0.10%): D
- Foaming property (Chlorobutanol 0.10%): C
- General judgment (Chlorobutanol 0.10%): D
- Appearance after shaking (Chlorobutanol 0.50%): B
- Appearance after standing (Chlorobutanol 0.50%): A
- Foaming property (Chlorobutanol 0.50%): B
- General judgment (Chlorobutanol 0.50%): B+
- Appearance after shaking (Chlorobutanol […]): C
- Appearance after standing (Chlorobutanol […]): A
- Foaming property (Chlorobutanol […]): C
- General judgment (Chlorobutanol […]): B
- Appearance after shaking/Appearance after standing [1]: Large amount of insoluble matters in wall face and appearance in Control
- Foaming property [1]: Very high foaming property in Control
- Defoaming time (Control: 5 mg/mL SUN N8075 aqueous solution, no test substance, standing): Not defoamed after standing for 1 week in Control
- Appearance after shaking (Ethanol 1.00%): B
- Appearance after standing (Ethanol 1.00%): B
- Foaming property (Ethanol 1.00%): C
- General judgment (Ethanol 1.00%): B
- Appearance after shaking (Ethanol 5.00%): D
- Appearance after standing (Ethanol 5.00%): E
- Foaming property (Ethanol 5.00%): D
- General judgment (Ethanol 5.00%): D
- Appearance after shaking (Ethanol 10.00%): D
- Appearance after standing (Ethanol 10.00%): E
- Foaming property (Ethanol 10.00%): D
- General judgment (Ethanol 10.00%): D
- Appearance after shaking (Ethanol […]): B
- Appearance after standing (Ethanol […]): C
- Foaming property (Ethanol […]): D
- General judgment (Ethanol […]): C
- Appearance after shaking (Glycine 100 mM): B
- Appearance after standing (Glycine 100 mM): B
- Foaming property (Glycine 100 mM): B
- General judgment (Glycine 100 mM): B
- Appearance after shaking (L-Arginine 30 mM): B+
- Appearance after standing (L-Arginine 30 mM): B+
- Defoaming time (L-Arginine 30 mM): B (In 60 minutes)
- Foaming property (L-Arginine 30 mM): B
- General judgment (L-Arginine 30 mM): B+
- Appearance after shaking (L-Arginine 60 mM): A
- Appearance after standing (L-Arginine 60 mM): A
- Defoaming time (L-Arginine 60 mM): A (In 20 minutes)
- Foaming property (L-Arginine 60 mM): A
- General judgment (L-Arginine 60 mM): A
- Appearance after shaking (L-Histidine 60 mM): A
- Appearance after standing (L-Histidine 60 mM): A
- Defoaming time (L-Histidine 60 mM): A (In 20 minutes)
- Foaming property (L-Histidine 60 mM): A
- General judgment (L-Histidine 60 mM): A
- Appearance after shaking (Meglumine 25 mM): C
- Appearance after standing (Meglumine 25 mM): C
- Foaming property (Meglumine 25 mM): D
- General judgment (Meglumine 25 mM): C
- Appearance after shaking (Meglumine 50 mM): A
- Appearance after standing (Meglumine 50 mM): A
- Defoaming time (Meglumine 50 mM): B (In 60 minutes)
- Foaming property (Meglumine 50 mM): C
- General judgment (Meglumine 50 mM): B
- Appearance after shaking (Meglumine 75 mM): A
- Appearance after standing (Meglumine 75 mM): A
- Defoaming time (Meglumine 75 mM): B (In 60 minutes)
- Foaming property (Meglumine 75 mM): B
- General judgment (Meglumine 75 mM): A
- Appearance after shaking (Meglumine 100 mM): A
- Appearance after standing (Meglumine 100 mM): A
- Defoaming time (Meglumine 100 mM): A (In 20 minutes)
- Foaming property (Meglumine 100 mM): C
- General judgment (Meglumine 100 mM): A
- Appearance after shaking (Methane sulfonic acid 15 mM): D
- Appearance after standing (Methane sulfonic acid 15 mM): D
- Foaming property (Methane sulfonic acid 15 mM): B
- General judgment (Methane sulfonic acid 15 mM): D
- Appearance after shaking (Propylene glycol 1.00%): B
- Appearance after standing (Propylene glycol 1.00%): A
- Foaming property (Propylene glycol 1.00%): B
- General judgment (Propylene glycol 1.00%): B+
- Appearance after shaking (Propylene glycol 5.00%): B
- Appearance after standing (Propylene glycol 5.00%): D
- Foaming property (Propylene glycol 5.00%): D
- General judgment (Propylene glycol 5.00%): D
- Appearance after shaking (Propylene glycol 10.00%): C
- Appearance after standing (Propylene glycol 10.00%): D
- Foaming property (Propylene glycol 10.00%): D
- General judgment (Propylene glycol 10.00%): D
- Appearance after shaking (Propylene glycol […]): C
- Appearance after standing (Propylene glycol […]): D
- Foaming property (Propylene glycol […]): D
- General judgment (Propylene glycol […]): D
- Appearance after shaking (Sodium L-glutamate 30 mM): B+
- Appearance after standing (Sodium L-glutamate 30 mM): B+
- Foaming property (Sodium L-glutamate 30 mM): B+
- General judgment (Sodium L-glutamate 30 mM): B+
- Appearance after shaking (Sodium L-glutamate 60 mM): A
- Appearance after standing (Sodium L-glutamate 60 mM): A
- Defoaming time (Sodium L-glutamate 60 mM): A (In 20 minutes)
- Foaming property (Sodium L-glutamate 60 mM): B+
- General judgment (Sodium L-glutamate 60 mM): A
- Appearance after shaking (Sodium chloride 25 mM): D
- Appearance after standing (Sodium chloride 25 mM): D
- Foaming property (Sodium chloride 25 mM): B
- General judgment (Sodium chloride 25 mM): D
- Appearance after shaking (Sodium chloride 50 mM): B
- Appearance after standing (Sodium chloride 50 mM): B
- Foaming property (Sodium chloride 50 mM): A
- General judgment (Sodium chloride 50 mM): C
- Appearance after shaking (Sodium chloride 75 mM): A
- Appearance after standing (Sodium chloride 75 mM): A
- Defoaming time (Sodium chloride 75 mM): A (In 20 minutes)
- Foaming property (Sodium chloride 75 mM): B+
- General judgment (Sodium chloride 75 mM): A
- Appearance after shaking (Sodium chloride 100 mM): A
- Appearance after standing (Sodium chloride 100 mM): A
- Defoaming time (Sodium chloride 100 mM): A (In 20 minutes)
- Foaming property (Sodium chloride 100 mM): B
- General judgment (Sodium chloride 100 mM): A
